Source: PMC12292445, “Physiologically Based Pharmacokinetic Modeling for Predicting Drug Levels After Bariatric Surgery: Vardenafil Exposure Before vs. After Gastric Sleeve/Bypass” (Biomolecules, 2025)
≈ marks a conversion by molar mass, not a printed value. Where two headings read alike, the source gives them in different places.

How the values were obtained:
clinical = test: clinical
Description: Values were either obtained from the literature, in silico predictions (ADMET Predictor® module, version 10.4.0.0; Simulations Plus Inc., Lancaster, CA, USA) based on the drug’s molecular structure, or experimentally determined. pH-dependent solubility data were input as an .spd file and used to fit the solubility factors in the solubility model. Drug dissolution along the GIT was calculated using the software default Johnson equation [58] based on the drug’s solubility and particle size. With the lack of data on commercial product drug particle size, 100 µm was chosen as an approximate value for all simulations. Regarding poor aqueous solubility, bile salts’ effect on drug solubility/dissolution was also accounted for. The drug precipitation time was set as the default 900 s. […] The distribution and elimination PK parameters of vardenafil were based on available data of in vivo plasma concentration over time following IV and PO drug administration, using the software-integrated PKPlus^TM module and optimized further while keeping the final values within the reported literature range (Table 3).

[1] = In vitro dissolution of whole tablets under pre- vs post-bariatric gastric conditions; type: physicochemical; details: Levitra 20 mg tablet
Description: The dissolution of whole tablet vardenafil (20 mg) products was studied in three different conditions, as previously described (n = 4 for each condition): (1) pH 1 maleic acid, 250 mL medium (pre-surgery conditions), with the USP dissolution apparatus II (Premiere 5100, Distek®, North Brunswick, NJ, USA), at 100 rpm paddle rotation; […] This rotation velocity was calculated, addressing the following parameters: the paddle size (D), volume of fluid (V), and agitation strength (ε), as follows: εlong/εshort=RPMlong3 × Dlong5/Vlong/RPMshort3 × Dshort5/Vshort These adjusted experimental conditions mimic pre- vs. post-bariatric intragastric dissolution conditions, including the pH, temperature, fluid volume, and contractility force, and were thus preferred over standard, compendial dissolution methods. Next, 300 µL samples were drawn for 90 min at 10 different time points and then filtered prior to ultra-performance liquid chromatography (UPLC) analysis (Table 1).

[2] = design: method as in earlier work; details: healthy fasted humans, digitized mean profile, cited from earlier work
physchem [3] = type: physicochemical; details: human; for solubility: thermodynamic from solid
Description: The equilibrium solubility of vardenafil in gastric content was also tested using the shake-flask method mentioned above, which followed a procedure that had been recently described. In short, excess drug was added to glass vials containing samples of gastric content aspirated from three patients (1 SG, 1 RYGB, and 1 OAGB) during bariatric procedure time. Aspiration was performed through the nasogastric tube at three time points: before, immediately after , and 24 h post-surgery. Study protocol approval was given by the Ben-Gurion University School of Medicine institutional review board (institutional board request number 0248-18-SOR), and informed consent was obtained from all the participants prior to surgery. Following gastric content collection, pH was immediately measured and recorded. […] As vardenafil hydrochloride powder modified the pH of the post-bariatric gastric fluid, pH was adjusted with a small volume pH 7 buffer, as necessary.

physchem [4] = type: physicochemical
Description: The equilibrium solubility of vardenafil was determined by the previously described shake-flask method. Four different medium pHs were used: pH 1 and pH 3 (0.2 M maleic acid), pH 5 (0.2 M acetic acid), and pH 7 (0.2 M dihydrogen phosphate). Quadruplet (n = 4) samples of each buffer pH were prepared with drug powder added in excess, until saturation, to vials with 500 µL medium solution. Vial incubation was at 37 °C, with 200 rpm sample shaking for 24 h (Orbital Shaker Incubator, MRC Laboratory Instruments, Holon, Israel). Sample contents were then transferred to Eppendorf tubes for a 10 min centrifugation (Centrifuge 5430 R, Eppendorf®, Hamburg, Germany) at 20,817 rcf and 37 °C. Obtained supernatants were diluted as needed and immediately analyzed by UPLC-PDA (Table 1).

[5] = stated in discussion, no source given; cited from earlier work
[6] = estimated with PKPlus from in vivo IV and oral data, then optimized

## CCCc1nc(C)c2c(=O)[nH]c(-c3cc(S(=O)(=O)N4CCN(CC)CC4)ccc3OCC)nn12 [vardenafil]
clinical; [6]
  Distribution constant k12: 3.090 h⁻¹
  Distribution constant k13: 0.448 h⁻¹
  Distribution constant k21: 2.100 h⁻¹
  Distribution constant k31: 0.250 h⁻¹
clinical; human
  Vd: 0.8 L/kg
  clearance: 15.4 mL/min/kg
[1]; post-OAGB conditions, pH 7, 50 mL
  Dissolution (dose dissolved): 4%
[1]; post-SG conditions, pH 5, 50 mL
  Dissolution (dose dissolved): 100%
[1]; pre-surgery conditions, pH 1, 250 mL
  Dissolution (dose dissolved): 100%
[2]; 10 mg single oral dose
  AUC0−inf, observed: 27.29 ng·h/mL
  Cmax, observed: 7.20 ng/mL
  Tmax, observed: 57 min
[2]; 20 mg single oral dose
  AUC0−inf, observed: 41.86 ng·h/mL
  Cmax, observed: 16.30 ng/mL
  Tmax, observed: 46.8 min
Physchem [3]
  Lower ex vivo solubility after vs. before the surgery: > 500 fold
Physchem [3]; pH 2, plasma or biological fluid
  solubility: > 30 mg/mL
Physchem [3]; pH 7, plasma or biological fluid
  solubility: 0.06 mg/mL (≈ 0.123 mM)
Physchem [4]; 37 °C, pH 3, aqueous buffer, thermodynamic from solid
  solubility at 24 h: > 30 mg/mL
Physchem [4]; 37 °C, pH 5, aqueous buffer, thermodynamic from solid
  solubility at 24 h: 27.4 mg/mL (≈ 56.1 mM)
Physchem [4]; 37 °C, pH 7, aqueous buffer, thermodynamic from solid
  solubility at 24 h: 0.05 mg/mL (≈ 0.102 mM)
Physchem [4]; 24 h
  Decrease in saturation solubility: over 600 fold
Physchem [4]; 24 h, pH 1
  Solubility at 37 °C: 30 mg/mL (≈ 61.4 mM)
Physchem [4]; 24 h, pH 3
  Solubility at 37 °C: 30 mg/mL (≈ 61.4 mM)
Physchem [4]; pH 1
  solubility at 24 h: > 30 mg/mL
[5]
  pKa: ~ 7

## CCCc1nn(C)c2c(=O)[nH]c(-c3cc(S(=O)(=O)N4CCN(C)CC4)ccc3OCC)nc12 [sildenafil]
[5]
  pKa: ~ 7
